# Test results published in PubChem BioAssay AID328 (DTP/NCI, 2004).
# Several values for one entry are separate records, joined by “and”; a condition that tells them apart may be missing. Identical values can stand only once. Inconclusive results and toxic doses are left out.
# Test system: BDF1 mice, P388 leukemia ip, median survival T/C
# Assay: NCI In Vivo Anticancer Drug Screen. Data for tumor model P388 Leukemia (intraperitoneal) in B6D2F1 (BDF1) mice
# Conditions: endpoint: median survival time, higher = longer survival
# In short: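 Vehicle-dosed animals serve as the reference; survival of compound-dosed, tumour-implanted mice is divided by it.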
# [1] = dose: 100.0 mg/kg/injection, schedule: Q01DX009 (ip), vehicle: Klucel (hydroxypropylcellulose) (HPC)
# [2] = dose: 100.0 mg/kg/injection, schedule: Q04DX003 (ip), vehicle: Klucel (hydroxypropylcellulose) (HPC)
# [3] = dose: 200.0 mg/kg/injection, schedule: Q01DX009 (ip), vehicle: Klucel (hydroxypropylcellulose) (HPC)
# [4] = dose: 200.0 mg/kg/injection, schedule: Q04DX003 (ip), vehicle: Klucel (hydroxypropylcellulose) (HPC)
# [5] = dose: 400.0 mg/kg/injection, schedule: Q01DX009 (ip), vehicle: Klucel (hydroxypropylcellulose) (HPC)
# [6] = dose: 400.0 mg/kg/injection, schedule: Q04DX003 (ip), vehicle: Klucel (hydroxypropylcellulose) (HPC)
# [7] = dose: 100.0 mg/kg/injection, schedule: Q04DX003 (ip), vehicle: saline with Tween-80
# [8] = dose: 200.0 mg/kg/injection, schedule: Q04DX003 (ip), vehicle: saline with Tween-80
# [9] = dose: 400.0 mg/kg/injection, schedule: Q04DX003 (ip), vehicle: saline with Tween-80
smiles,measurement,setting,value
COP(=O)(O)C(Cc1ccccc1)NC(=O)OCc1ccccc1 (centres undefined),T/C,"dose: 25.0 mg/kg/injection, schedule: Q01DX005 (ip), vehicle: distilled water + Tween-80",100 % of control
same,T/C,"dose: 50.0 mg/kg/injection, schedule: Q01DX005 (ip), vehicle: distilled water + Tween-80",100 % of control
same,T/C,"dose: 100.0 mg/kg/injection, schedule: Q01DX005 (ip), vehicle: distilled water + Tween-80",94 % of control
CCOC(=O)CC(=Nc1ccccc1OC)C(=O)OCC,T/C,[1],86 % of control
same,T/C,[2],104 % of control
same,T/C,[3],86 % of control
same,T/C,[4],95 % of control
same,T/C,[5],104 % of control
same,T/C,[6],95 % of control
ClC(c1ccccc1)C1(Br)C=c2ccccc2=C1 (centres undefined),T/C,"dose: 50.0 mg/kg/injection, schedule: Q01DX009 (ip), vehicle: Klucel (hydroxypropylcellulose) (HPC)",95 % of control
same,T/C,"dose: 50.0 mg/kg/injection, schedule: Q04DX003 (ip), vehicle: Klucel (hydroxypropylcellulose) (HPC)",95 % of control
same,T/C,[1],90 % of control
same,T/C,[2],91 % of control
same,T/C,[4],100 % of control
Cc1noc(/N=C/c2ccccc2)c1C,T/C,"dose: 100.0 mg/kg/injection, schedule: Q01DX001 (ip), vehicle: Klucel (hydroxypropylcellulose) (HPC)",108 % of control
same,T/C,[2],95 % of control
same,T/C,"dose: 200.0 mg/kg/injection, schedule: Q01DX001 (ip), vehicle: Klucel (hydroxypropylcellulose) (HPC)",104 % of control
same,T/C,[4],100 % of control and 104 % of control
same,T/C,"dose: 400.0 mg/kg/injection, schedule: Q01DX001 (ip), vehicle: Klucel (hydroxypropylcellulose) (HPC)",112 % of control
same,T/C,[6],91 % of control and 100 % of control
O=S(=O)(O)c1ccc(CCCCCCl)cc1,T/C,"dose: 25.0 mg/kg/injection, schedule: Q01DX009 (ip), vehicle: saline",109 % of control
same,T/C,"dose: 50.0 mg/kg/injection, schedule: Q01DX009 (ip), vehicle: saline",100 % of control
same,T/C,"dose: 100.0 mg/kg/injection, schedule: Q01DX001 (ip), vehicle: saline",110 % of control
same,T/C,"dose: 100.0 mg/kg/injection, schedule: Q01DX009 (ip), vehicle: saline",104 % of control and 110 % of control
same,T/C,"dose: 200.0 mg/kg/injection, schedule: Q01DX001 (ip), vehicle: saline",90 % of control
same,T/C,"dose: 200.0 mg/kg/injection, schedule: Q01DX009 (ip), vehicle: saline",100 % of control
same,T/C,"dose: 400.0 mg/kg/injection, schedule: Q01DX001 (ip), vehicle: saline",90 % of control
same,T/C,"dose: 400.0 mg/kg/injection, schedule: Q01DX009 (ip), vehicle: saline",110 % of control
CC1=C[S+](c2ccccc2)c2cccc3cc4ccccc4c1c23 (centres undefined),T/C,"dose: 0.4 mg/kg/injection, schedule: Q01DX009 (ip), vehicle: saline with Tween-80",154 % of control
same,T/C,"dose: 0.6 mg/kg/injection, schedule: Q01DX009 (ip), vehicle: saline with Tween-80",165 % of control
same,T/C,"dose: 0.9 mg/kg/injection, schedule: Q01DX009 (ip), vehicle: saline with Tween-80",154 % of control and 155 % of control
same,T/C,"dose: 2.5 mg/kg/injection, schedule: Q01DX009 (ip), vehicle: saline with Tween-80",116 % of control
C=C(C)c1ccccc1S(=O)(=O)c1ccccc1C(C)(C)O,T/C,[7],105 % of control
same,T/C,[8],110 % of control
same,T/C,[9],114 % of control
COc1ccc(C2CCc3cc4c(cc3/C2=N/O)OCO4)cc1OC (centres undefined),T/C,"dose: 100.0 mg/kg/injection, schedule: Q01DX009 (ip), vehicle: saline with Tween-80",104 % of control
same,T/C,[7],100 % of control
same,T/C,"dose: 200.0 mg/kg/injection, schedule: Q01DX009 (ip), vehicle: saline with Tween-80",104 % of control
same,T/C,[8],100 % of control
same,T/C,"dose: 400.0 mg/kg/injection, schedule: Q01DX009 (ip), vehicle: saline with Tween-80",95 % of control
same,T/C,[9],90 % of control
Cc1ccc(S(=O)(=O)N2CC3CC2CN3Cc2ccccc2)cc1 (centres undefined),T/C,[1],109 % of control
same,T/C,[2],104 % of control
same,T/C,[3],104 % of control
same,T/C,[4],100 % of control
same,T/C,[5],100 % of control
same,T/C,[6],95 % of control
CSc1cccc(NC(=O)N2CCN(c3ccccc3)CC2)c1,T/C,"dose: 12.5 mg/kg/injection, schedule: Q01DX009 (ip), vehicle: DMSO",93 % of control
same,T/C,"dose: 25.0 mg/kg/injection, schedule: Q01DX009 (ip), vehicle: DMSO",94 % of control
